Tests used:
Assay type in all cases: functional
NCI-H23 [1] = assay: Anticancer activity against human NCI-H23 cells assessed cell growth at 10 uM after 48 hrs by sulforhodamine B assay relative to control
SR [2] = assay: Anticancer activity against human SR cells assessed cell growth at 10 uM after 48 hrs by sulforhodamine B assay relative to control
K562 = assay: Anticancer activity against human K562 cells after 48 hrs by sulforhodamine B assay; details: Homo sapiens, K562, 48 h; for CC50: read-out: LC50 (the source's name)
COLO 205 [3] = assay: Anticancer activity against human COLO205 cells assessed cell growth at 10 uM after 48 hrs by sulforhodamine B assay relative to control
SN12C = assay: Anticancer activity against human SN12C cells assessed cell growth at 10 uM after 48 hrs by sulforhodamine B assay relative to control
SR [4] = assay: Anticancer activity against human SR cells after 48 hrs by sulforhodamine B assay; details: Homo sapiens, SR, 48 h; for CC50: read-out: LC50 (the source's name)
OVCAR-8 = assay: Anticancer activity against human OVCAR8 cells after 48 hrs by sulforhodamine B assay; details: Homo sapiens, OVCAR-8, 48 h
HOP-92 = assay: Anticancer activity against human HOP92 cells after 48 hrs by sulforhodamine B assay; details: Homo sapiens, HOP-92, 48 h; for CC50: read-out: LC50 (the source's name)
PC-3 = assay: Anticancer activity against human PC3 cells assessed cell growth at 10 uM after 48 hrs by sulforhodamine B assay relative to control
EKVX = assay: Anticancer activity against human EKVX cells after 48 hrs by sulforhodamine B assay; details: Homo sapiens, EKVX, 48 h; for CC50: read-out: LC50 (the source's name)
MCF7 = assay: Anticancer activity against human MCF7 cells after 48 hrs by sulforhodamine B assay; details: Homo sapiens, MCF7, 48 h
A498 = assay: Anticancer activity against human A498 cells after 48 hrs by sulforhodamine B assay; details: Homo sapiens, A498, 48 h; for CC50: read-out: LC50 (the source's name)
SK-MEL-5 = assay: Anticancer activity against human SK-MEL-5 cells after 48 hrs by sulforhodamine B assay; details: for CC50: read-out: LC50 (the source's name)
NCI-H23 [5] = assay: Anticancer activity against human NCI-H23 cells after 48 hrs by sulforhodamine B assay; details: for CC50: read-out: LC50 (the source's name)
A549 = assay: Anticancer activity against human A549 cells assessed cell growth at 10 uM after 48 hrs by sulforhodamine B assay relative to control
OVCAR-4 = assay: Anticancer activity against human OVCAR4 cells after 48 hrs by sulforhodamine B assay; details: Homo sapiens, OVCAR-4, 48 h; for CC50: read-out: LC50 (the source's name)
NCI-H226 = assay: Anticancer activity against human NCI-H226 cells after 48 hrs by sulforhodamine B assay; details: Homo sapiens, NCI-H226, 48 h
SW-620 = assay: Anticancer activity against human SW620 cells after 48 hrs by sulforhodamine B assay
UO-31 = assay: Anticancer activity against human UO31 cells assessed cell growth at 10 uM after 48 hrs by sulforhodamine B assay relative to control
HOP-62 = assay: Anticancer activity against human HOP62 cells after 48 hrs by sulforhodamine B assay; details: Homo sapiens, HOP-62, 48 h; for CC50: read-out: LC50 (the source's name)
LOX IMVI = assay: Anticancer activity against human LOXIMVI cells after 48 hrs by sulforhodamine B assay; details: Homo sapiens, LOX IMVI, 48 h; for CC50: read-out: LC50 (the source's name)
SF-295 = assay: Anticancer activity against human SF295 cells after 48 hrs by sulforhodamine B assay; details: Homo sapiens, SF-295, 48 h; for CC50: read-out: LC50 (the source's name)
MDA-MB-468 = assay: Anticancer activity against human MDA-MB-468 cells after 48 hrs by sulforhodamine B assay; details: Homo sapiens, MDA-MB-468, 48 h
HL-60(TB) = assay: Anticancer activity against human HL-60(TB) cells after 48 hrs by sulforhodamine B assay; details: Homo sapiens, HL-60, 48 h; for CC50: read-out: LC50 (the source's name)
SK-OV-3 [6] = assay: Anticancer activity against human SKOV3 cells after 48 hrs by sulforhodamine B assay; details: Homo sapiens, SK-OV-3, 48 h; for CC50: read-out: LC50 (the source's name)
NCI-H322M = assay: Anticancer activity against human NCI-H322M cells after 48 hrs by sulforhodamine B assay; details: Homo sapiens, NCI-H322M, 48 h
U-251 [7] = assay: Anticancer activity against human U251 cells after 48 hrs by sulforhodamine B assay; details: Homo sapiens, U-251, 48 h; for CC50: read-out: LC50 (the source's name)
T47D = assay: Anticancer activity against human T47D cells after 48 hrs by sulforhodamine B assay; details: Homo sapiens, T47D, 48 h; for CC50: read-out: LC50 (the source's name)
KM12 [8] = assay: Anticancer activity against human KM12 cells assessed cell growth at 10 uM after 48 hrs by sulforhodamine B assay relative to control
U-251 [9] = assay: Anticancer activity against human U251 cells assessed cell growth at 10 uM after 48 hrs by sulforhodamine B assay relative to control
OVCAR-5 = assay: Anticancer activity against human OVCAR5 cells assessed cell growth at 10 uM after 48 hrs by sulforhodamine B assay relative to control
NCI/ADR-RES = assay: Anticancer activity against human NCI/ADR-RES cells after 48 hrs by sulforhodamine B assay; details: Homo sapiens, NCI/ADR-RES, 48 h
COLO 205 [10] = assay: Anticancer activity against human COLO205 cells after 48 hrs by sulforhodamine B assay; details: Homo sapiens, COLO 205, 48 h; for CC50: read-out: LC50 (the source's name)
HT-29 = assay: Anticancer activity against human HT-29 cells assessed cell growth at 10 uM after 48 hrs by sulforhodamine B assay relative to control
SNB-75 = assay: Anticancer activity against human SNB75 cells after 48 hrs by sulforhodamine B assay; details: Homo sapiens, SNB-75, 48 h; for CC50: read-out: LC50 (the source's name)
ACHN = assay: Anticancer activity against human ACHN cells after 48 hrs by sulforhodamine B assay; details: Homo sapiens, ACHN, 48 h
MOLT-4 = assay: Anticancer activity against human MOLT4 cells assessed cell growth at 10 uM after 48 hrs by sulforhodamine B assay relative to control
SK-OV-3 [11] = assay: Anticancer activity against human SKOV3 cells assessed cell growth at 10 uM after 48 hrs by sulforhodamine B assay relative to control
SF-268 = assay: Anticancer activity against human SF268 cells assessed cell growth at 10 uM after 48 hrs by sulforhodamine B assay relative to control
KM12 [12] = assay: Anticancer activity against human KM12 cells after 48 hrs by sulforhodamine B assay; details: for CC50: read-out: LC50 (the source's name)
HCC 2998 = assay: Anticancer activity against human HCC2998 cells after 48 hrs by sulforhodamine B assay; details: for CC50: read-out: LC50 (the source's name)

## CCCCCCCCCCCCCCCC[n+]1ccn(C)c1.[Cl-]
NCI-H23 [1]
  Activity: -51.9%
SR [2]
  Activity: 15.17%
K562
  GI50: 190 nM
  CC50: 3.49 µM
COLO 205 [3]
  Activity: -45.99%
SN12C
  Activity: -94.61%
SR [4]
  GI50: 100 nM
  CC50: 4.38 µM
OVCAR-8
  GI50: 865 nM
HOP-92
  GI50: 1.02 µM
  CC50: 7.3 µM
PC-3
  Activity: -100%
EKVX
  GI50: 358 nM
  CC50: 6.77 µM
MCF7
  GI50: 431 nM
A498
  GI50: 1110 nM
  CC50: 7.39 µM
SK-MEL-5; Homo sapiens, SK-MEL-5, 48 h
  GI50: 461 nM
  CC50: 4.19 µM
NCI-H23 [5]; Homo sapiens, NCI-H23, 48 h
  GI50: 504 nM
  CC50: > 100 µM
A549
  Activity: -50.92%
OVCAR-4
  GI50: 594 nM
  CC50: 7.2 µM
NCI-H226
  GI50: 861 nM
SW-620; Homo sapiens, SW-620, 48 h
  GI50: 461 nM
UO-31
  Activity: -85.85%
HOP-62
  GI50: 1.17 µM
  CC50: 6.89 µM
LOX IMVI
  GI50: 334 nM
  CC50: 3.78 µM
SF-295
  GI50: 383 nM
  CC50: 5.02 µM
MDA-MB-468
  GI50: 92 nM
HL-60(TB)
  GI50: 131 nM
  CC50: 0.816 µM
SK-OV-3 [6]
  GI50: 1.27 µM
  CC50: > 100 µM
NCI-H322M
  GI50: 1.74 µM
U-251 [7]
  GI50: 334 nM
  CC50: 3.87 µM
T47D
  GI50: 564 nM
  CC50: > 100 µM
KM12 [8]
  Activity: -83.88%
U-251 [9]
  Activity: -69.96%
OVCAR-5
  Activity: -67.51%
NCI/ADR-RES
  GI50: 2.1 µM
COLO 205 [10]
  GI50: 343 nM
  CC50: > 100 µM
HT-29
  Activity: -100%
SNB-75
  GI50: 555 nM
  CC50: 5.65 µM
ACHN
  GI50: 0.832 µM
MOLT-4
  Activity: 17.19%
SK-OV-3 [11]
  Activity: -33.78%
SF-268
  Activity: -22.98%
KM12 [12]; Homo sapiens, KM12, 48 h
  GI50: 357 nM
  CC50: 3.57 µM
HCC 2998; Homo sapiens, HCC 2998, 48 h
  GI50: 192 nM
  CC50: 7.29 µM

## CCCCCCCCCCCC[n+]1ccn(C)c1.[Cl-]
NCI-H23 [1]
  Activity: 28.79%
SR [2]
  Activity: 103.6%
K562
  GI50: 498 nM
  CC50: > 100 µM
COLO 205 [3]
  Activity: 8.8%
SN12C
  Activity: 19.36%
SR [4]
  GI50: 597 nM
  CC50: 97.6 µM
OVCAR-8
  GI50: 2180 nM
HOP-92
  GI50: 5.3 µM
  CC50: > 100 µM
PC-3
  Activity: 75.39%
EKVX
  GI50: 873 nM
  CC50: > 100 µM
MCF7
  GI50: 1690 nM
A498
  GI50: 4280 nM
  CC50: > 100 µM
SK-MEL-5; Homo sapiens, SK-MEL-5, 48 h
  GI50: 1220 nM
SK-MEL-5
  CC50: 7.8 µM
NCI-H23 [5]
  GI50: 885 nM
NCI-H23 [5]; Homo sapiens, NCI-H23, 48 h
  CC50: > 100 µM
A549
  Activity: 32.62%
OVCAR-4
  GI50: 3170 nM
  CC50: > 100 µM
NCI-H226
  GI50: 3550 nM
SW-620
  GI50: 2970 nM
UO-31
  Activity: 65.71%
HOP-62
  GI50: 4.86 µM
  CC50: > 100 µM
LOX IMVI
  GI50: 1720 nM
  CC50: 45.3 µM
SF-295
  GI50: 2360 nM
  CC50: > 100 µM
MDA-MB-468
  GI50: 384 nM
HL-60(TB)
  GI50: 331 nM
  CC50: 7.78 µM
SK-OV-3 [6]
  GI50: 4.76 µM
  CC50: > 100 µM
NCI-H322M
  GI50: 22.6 µM
U-251 [7]
  GI50: 2150 nM
  CC50: > 100 µM
T47D
  GI50: 4290 nM
  CC50: > 100 µM
KM12 [8]
  Activity: 14.03%
U-251 [9]
  Activity: 21.74%
OVCAR-5
  Activity: 45.62%
NCI/ADR-RES
  GI50: 55 µM
COLO 205 [10]
  GI50: 2620 nM
  CC50: > 100 µM
HT-29
  Activity: 12.35%
SNB-75
  GI50: 2740 nM
  CC50: 56.8 µM
ACHN
  GI50: 7.24 µM
MOLT-4
  Activity: 78.62%
SK-OV-3 [11]
  Activity: 44.54%
SF-268
  Activity: 58.74%
KM12 [12]; Homo sapiens, KM12, 48 h
  GI50: 2090 nM
KM12 [12]
  CC50: 85.8 µM
HCC 2998
  GI50: 1890 nM
HCC 2998; Homo sapiens, HCC 2998, 48 h
  CC50: > 100 µM

From ChEMBL document CHEMBL1153245, “A profile of the in vitro anti-tumor activity of imidazolium-based ionic liquids” (2010)
